This passage reports tail flick latency results from PubChem BioAssay AID652108 (The Scripps Research Institute Molecular Screening Center, 2013).

Some test systems named below: 1 hour; 1 week; 24 hours.
Holding throughout (test): PubChem AID 652108
Details in all cases: mouse tail flick latency, kappa agonist-induced antinociception

For `COC(=O)c1cc(Br)cnc1N1CCC(NC2CCCCC2)C(O)C1` (configuration not stated), the tail flick latency was determined as 8.07 s with 1 hour; 4.68 s with 1 hour (baseline latency at 0 min); 6.04 s with 1 hour (latency at 30 min); 4.2 s in the assay on 1 hour (latency at 60 min); 12 s in the assay with 1 week; 3.47 s with 1 week (baseline latency at 0 min). Moreover, the tail flick latency in the assay with 1 week (latency at 30 min) came out at 8.5 s; in the assay on 1 week (latency at 60 min), 3.25 s; with 24 hours it was 13.4 s; with 24 hours (baseline latency at 0 min) it was 4.23 s; in the assay on 24 hours (latency at 30 min), 9.11 s; in the assay on 24 hours (latency at 60 min), 5.2 s.
